Data as given in patent publication US10670605B2, “Cysteine reactive probes and uses thereof” (The Scripps Research Institute, priority 2015, dated 2020).
Counter-ions that a name gives are not always drawn.

Key:
[1] = test system: Nrf2(+/+) and (-/-) T cells; test: CD25 expression in Nrf2(+/+) and (-/-) T cells; assay type: cell-based, mouse; conditions: 24 h
Description: C57BL/6J and Nrf2^-/- mice (Stock No:017009; […]: Jackson Labs) were bred and maintained in a closed breeding facility at The Scripps Research Institute and were 6-8 weeks old when used in experiments. All mice were used in accordance with guidelines from the Institutional Animal Care and Use Committee of The Scripps Research Institute. Spleens were harvested from female mice, perfused with collagenase, and incubated at 37° C. with 5% CO2 for 30 min. After this time, the spleens were homogenized. Cells that passed through a 100 μm cell strainer were collected and washed with RPMI. T cells were isolated from the splenocytes using the EasySepTM Mouse T cell Isolation Kit (19851; […]) according to manufacturer's instructions. 96-well plates were coated with anti-CD3 (1:200; BioXcell) and anti-CD28 (1:500; 302933; BioLegend) in PBS (100 μL/well) overnight at 4° C. The plates were then washed twice with PBS and to each well was added 500,000 primary T cells in 100 μL of RPMI supplemented with 10% FBS, glutamine, and Pen-Strep. Cells were then treated with 100 μL of media containing compound at the indicated concentrations (final well volume of 200 μL). Cells were left at 37° C. in a 5% CO2 incubator for the indicated periods of time and harvested by centrifugation (500 g, 8 min, 4° C.), followed by washing with PBS. […] Data was then analyzed with FlowJo software (Treestar Inc.). […]

[2] = test system: primary mouse splenocytes; conditions: wild type and Nrf2(-/-) splenocytes; cited from earlier work
CDKN3 C39 (Q16667) = CDKN3 C39 (Q16667) (Homo sapiens, UniProt Q16667); test: Competitive isoTOP-ABPP in situ; assay type: cell-based; conditions: fragment 4 at 100 μM, MDA-MB-231 cells
Chain of CDKN3 C39 (Q16667) (Q16667 whole entry, the tested form may be a part): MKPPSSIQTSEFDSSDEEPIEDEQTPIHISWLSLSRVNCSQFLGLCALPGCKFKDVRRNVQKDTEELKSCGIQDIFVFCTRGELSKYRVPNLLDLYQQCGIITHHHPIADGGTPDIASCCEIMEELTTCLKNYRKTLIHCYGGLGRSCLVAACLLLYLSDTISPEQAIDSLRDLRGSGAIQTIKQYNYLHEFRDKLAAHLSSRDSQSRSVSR

PRMT1 = target: T1, PRMT1 (Homo sapiens, UniProt Q99873); test: PRMT1 in vitro methylation assay (histone 4, 3H-SAM); assay type: biochemical; conditions: pre-treatment with fragment 1 h
T1 construct: Full length PRMT1 subcloned into pET45b (+) (Novagen) was previously generated by the Cravatt lab; inferred from Ni-NTA purification and the pET45b vector; made in house; host or cells: E. coli BL21(DE3)
T1 sequence (Q99873 11-371 limits assumed): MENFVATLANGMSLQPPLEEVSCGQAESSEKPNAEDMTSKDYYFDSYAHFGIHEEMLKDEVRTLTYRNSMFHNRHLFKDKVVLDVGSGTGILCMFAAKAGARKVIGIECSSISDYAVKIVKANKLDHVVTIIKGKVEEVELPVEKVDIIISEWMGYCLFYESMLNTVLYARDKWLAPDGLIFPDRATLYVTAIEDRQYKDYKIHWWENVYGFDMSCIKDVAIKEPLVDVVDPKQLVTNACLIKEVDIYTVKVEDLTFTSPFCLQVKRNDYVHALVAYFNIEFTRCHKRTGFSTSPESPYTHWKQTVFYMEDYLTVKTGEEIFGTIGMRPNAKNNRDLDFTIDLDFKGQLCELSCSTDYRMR
Description: PRMT1 assays were conducted as described in Weerapana et al. Nature 468:790-795 (2010). Recombinant human PRMT1 (0.85 μM, wild type or C101S mutant) in 25 μL methylation buffer (20 mM Tris, pH 8.0, 200 mM NaCl, 0.4 mM EDTA) was pre-incubated with indicated fragments for 1 h and methylation activity was monitored after addition of […] of recombinant histone 4 (NEB, M2504S) and ^3H-SAM (2 μCi). Reactions were further incubated for 60 min at ambient temperature and stopped with 4×SDS sample buffer. SDS-PAGE gels were fixed with 10% acetic acid/10% methanol (v/v), washed, and incubated with Amplify reagent (Amersham) before exposing to film at −80° C. for 3 days.

O00541_C272 = O00541_C272 (Homo sapiens, UniProt O00541); test: Competitive isoTOP-ABPP, cell lysates; assay type: binding; conditions: 500 μm, in-vitro_ramos
Chain of O00541_C272 (O00541 whole entry, looked up): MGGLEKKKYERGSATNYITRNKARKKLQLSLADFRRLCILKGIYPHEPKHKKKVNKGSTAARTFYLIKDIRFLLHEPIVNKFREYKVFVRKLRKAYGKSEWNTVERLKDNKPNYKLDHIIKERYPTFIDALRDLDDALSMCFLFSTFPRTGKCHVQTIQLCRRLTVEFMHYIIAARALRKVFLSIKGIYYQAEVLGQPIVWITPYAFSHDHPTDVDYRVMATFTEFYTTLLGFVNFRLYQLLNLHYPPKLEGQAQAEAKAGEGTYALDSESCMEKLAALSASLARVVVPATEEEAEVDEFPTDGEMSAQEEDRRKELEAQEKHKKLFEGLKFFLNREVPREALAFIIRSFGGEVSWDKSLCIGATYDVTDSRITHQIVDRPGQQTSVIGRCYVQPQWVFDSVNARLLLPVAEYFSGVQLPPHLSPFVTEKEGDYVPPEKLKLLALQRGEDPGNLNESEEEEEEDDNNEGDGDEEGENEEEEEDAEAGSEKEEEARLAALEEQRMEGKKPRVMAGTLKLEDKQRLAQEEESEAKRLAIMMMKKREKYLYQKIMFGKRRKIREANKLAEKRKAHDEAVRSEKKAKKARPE

COC(=O)/C=C/C(=O)OC [DMF, dimethyl fumarate]
sensitivity of activation of Nrf2(+/+) and (-/-) T cells [1]: similarly sensitive
pro-inflammatory cytokine release [2]: inhibits

COc1ccc(C2CC(c3cccs3)=NN2C(=O)CCl)cc1 (centres unmarked) [compound 4]
isoTOP-ABPP reactivity profile (ratio) 4_100 μM_in-situ_231 (CDKN3 C39 (Q16667)): 0.6

Cn1cc(S(=O)(=O)N2CCOCC2)cc1C(=O)NC(=O)CCl [compound 11]
PRMT1-catalyzed methylation of histone 4 (PRMT1): inhibited

N#CC(=Cc1ccc(-c2ccccc2Cl)o1)C(N)=O [compound 42]
isoTOP-ABPP reactivity profile ratio, O00541_C272 (O00541_C272): 0.9
